Each structure is given as a SMILES string. Bounds are passed on as bounds.

One series in a line: Acute toxicity in mice. The following applies: mouse, in vivo, deaths for seven days. The procedure:
A group of 10 male mice of ddY strain weighing about 25 grams was administered orally or intraperitoneally with a suspension of the test compound in a 5% arabic gum solution in the amount of 10 ml per kg. of body weight. The LD50 values were calculated by means of the Wilcoxon-Litchfield method on the number of mice died for seven days after administration.

The next series relates to rabbit eye mucosa. The series can be described thus: Therapeutic action on hyperemia of rabbit eye mucosa (induced by 0.03 N sodium hydroxide). Type of series: in vivo, rabbit (male Japanese albino). The arrangement: key: conjunctival erythema score per Fukui and Ikemoto standards. The following applies: for Average Erythema Score After Treatment: 50 μl instilled, before treatment 1, solvent alone 1; for Average Erythema Score Before Treatment: baseline. The procedure:
Therapeutic Action on Hyperemia of Rabbit Eye Mucosa
100 μl of 0.03 N sodium hydroxide was instillated into one eye to induce hyperemia in male Japanese albino rabbits weighting about 3 Kg. A group of 3 rabbits was used for test, which were caused an erythema score 1 on their conjunctive based on the standards of Fukui and Ikemoto (Gendai-no-Rinshao, 4, pp. 277 (1970)). The test compound was dissolved in a 10% NIKKOL HCO-60 (trademark: Nikko Chemical Co., Ltd.) and instilled to the test rabbit at a rate of 50 μl.

In series [1] the test system is isolated guinea-pig atria. The series can be described thus: Cardiotropic action in isolated guinea-pig atria. The following applies: Cavia porcellus, 30° C.; for inhibition at 1 µg/mL / activation at 1 µg/mL: 1 μg/ml; for inhibition at 3 µg/mL / activation at 3 µg/mL: 3 μg/ml. Also on record: species or system guinea-pig (male). The procedure:
Cardiotropic Action in Isolated Guinea-Pig Atria
The isolated atria from male Guinea-Pigs weighing about 350 grams were hanged in an organ bath filled with a Krebs-Henselite's solution and bubbled with a mixed gas (5% CO2 and 95% O2) at 30° C. A solution of the test compound in dimethylsulfoxide was added to the bath. The contractile force and beats were then measured and calibrated into a percentage increase of the contractile force and a percentage decrease of the beats.

For series [2], the system named is rats. The series can be described thus: Diuretic action in rats (urinary volume during 5 hours after oral administration). Format: in vivo, rat (male, Wistar strain). The following applies: urinary volume 5 hours, control = 100%. The procedure: A group of 5 male rats of Wistar strain having each a body weight ranging from 180 to 200 grams was used for each test compound. The rats were fasted overnight and then abstained from water two hours before the administration of the test compound. The test compound was prepared by suspending the compound in a 5% arabic gum-saline solution and administered orally to the rats in the amount of 25 ml per kg. of body weight.
The urine was collected during 5 hours after administration and its volume was measured. The diuretic actions of the test compounds were calculated as the urinary volume of the control group where no test compound was administered being as 100%.

Series [3] concerns rats. In words: Hypertensive action in rats (blood pressure, oral, without anesthesia). Type of series: in vivo, rat. The procedure:
Hypertensive Action in Rats
A suspension of the test compound in a 5% arabic gum solution was orally to rats catheterized before more than 24 hours according to Mizokami et al. (Nihon Taishitsugaku Zasshi, 32, p.p. 59-63 (1969)).

A short description of the next series: Solubility. Type of series: physicochemical.
The mark [4] stands for this setting: read-out: Percentage Decrease in Beats.
Setting [5] is: read-out: Percentage Increase of Contractile Force.

In the case of `COc1ccc(F)cc1N=Nc1ncc[nH]1` [Compound B, 2-[(2-methoxy-5-fluorophenyl)azo]-1H-imidazole], in “Acute toxicity in mice” (ip), the LD50 (usually the dose expected to kill half of the subjects tested) at 168 h is 322 mg/kg. For the same molecule, the LD50 at 168 h in “Acute toxicity in mice” (po, orally) was 462 mg/kg. Further, in the series with rabbit eye mucosa (0.05%), the “Average Erythema Score After Treatment” value is on record as 0.33. The “Average Erythema Score Before Treatment” value in the series with rabbit eye mucosa is on record as 1. In addition, the inhibition at 1 µg/mL in series [1] (setting [4]) worked out at 2.3%. The activation at 1 µg/mL in series [1] (setting [5]) worked out at 11.5%. Moreover, the “Diuretic Activity” value in the series with rats [2] (1.0 mg/kg) stood at 154%. The “Diuretic Activity” value with rats [2] (2.0 mg/kg) was determined as 275%. Besides, in the series on rats [3] (2 mg/kg), the “Variation in Blood Pressures, Duration Period” value (from here on “Variation … Duration Period”) was 65 min and the “Variation in Blood Pressures, Percentage Increase” value (from here on “Variation … Percentage Increase”) is 42%. Also, in the series “Solubility”, the Solubility in acetone result is reported as “readily soluble”, the Solubility in hexane entry is recorded as “less soluble”, the Solubility in methanol result is reported as “readily soluble” and the Solubility in water entry is recorded as “less soluble”.

For `Nc1nc(N)c2nc(-c3ccccc3)c(N)nc2n1` [triamterene, reference compound], the “Diuretic Activity” value is 192% with rats [2] (10.0 mg/kg) and 242% with rats [2] (20.0 mg/kg).

`NS(=O)(=O)c1cc(C(=O)O)c(NCc2ccco2)cc1Cl` [furosemide, reference compound]: the “Diuretic Activity” value in the series with rats [2] (5.0 mg/kg) is given as 113%; in the series with rats [2] (10.0 mg/kg), 188%; in the series on rats [2] (20.0 mg/kg), 292%.

`COc1ccc(Br)cc1N=Nc1ncc[nH]1` [Compound C, 2-[(2-methoxy-5-bromophenyl)azo]-1H-imidazole]: the LD50 at 168 h in the series “Acute toxicity in mice” (ip) was more than 1000 mg/kg. This molecule also came in with an LD50 at 168 h in the series “Acute toxicity in mice” (po, orally) of more than 1500 mg/kg. In the series with rabbit eye mucosa (0.2%), the “Average Erythema Score After Treatment” value was determined as 0.33. Also, the “Average Erythema Score Before Treatment” value in the series on rabbit eye mucosa is 1. Moreover, the inhibition at 3 µg/mL in series [1] (setting [4]) came to 4.2%. The activation at 3 µg/mL in series [1] (setting [5]) turned out to be 7.4%. The “Diuretic Activity” value in the series with rats [2] (5.0 mg/kg) was 171%. For the same molecule, in the series with rats [2] (10.0 mg/kg), the “Diuretic Activity” value was 283%. Also, in the series with rats [3] (5 mg/kg), the “Variation … Duration Period” value was 70 min and the “Variation … Percentage Increase” value is given as 40%. Further, in “Solubility”, the Solubility in acetone entry is “readily soluble”, the Solubility in hexane entry is on record as “sparingly soluble”, the Solubility in methanol result is listed as “readily soluble” and the Solubility in water entry is given as “sparingly soluble”.

`COc1ccc(I)cc1N=Nc1ncc[nH]1` [Compound D]: the LD50 at 168 h in the series “Acute toxicity in mice” (ip) was more than 1000 mg/kg. Further, the 50% lethal dose (LD50) at 168 h in the series “Acute toxicity in mice” (po, orally) was more than 1500 mg/kg. In the series on rabbit eye mucosa (0.2%), the “Average Erythema Score After Treatment” value amounted to 0.5. Further, the “Average Erythema Score Before Treatment” value with rabbit eye mucosa stood at 1. Moreover, the inhibition at 3 µg/mL in series [1] (setting [4]) was 3.6%. Further, the activation at 3 µg/mL in series [1] (setting [5]) was 6.9%. For the same molecule, the “Diuretic Activity” value in the series with rats [2] (5.0 mg/kg) is given as 138%. The “Diuretic Activity” value in the series with rats [2] (10.0 mg/kg) turned out to be 183%. In the series with rats [3] (5 mg/kg), the “Variation … Duration Period” value was 50 min and the “Variation … Percentage Increase” value came to 35%. In “Solubility”, the Solubility in acetone result is recorded as “readily soluble”, the Solubility in hexane result is on record as “sparingly soluble”, the Solubility in methanol result is “readily soluble” and the Solubility in water result is listed as “sparingly soluble”.

`COc1ccccc1N=Nc1ncc[nH]1` [Compound E, 2-[(2-methoxyphenyl)azo]-1H-imidazole]: in the series “Acute toxicity in mice” (ip), the LD50 at 168 h came to 630 mg/kg. In “Acute toxicity in mice” (po, orally), the LD50 at 168 h was 1010 mg/kg. For the same molecule, in the series with rabbit eye mucosa (0.1%), the “Average Erythema Score After Treatment” value is listed as 0.5. Besides, in the series on rabbit eye mucosa, the “Average Erythema Score Before Treatment” value is given as 1. Further, the inhibition at 10 µg/mL in series [1] (10 μg/ml, read-out: Percentage Decrease in Beats) is 2.2%. In series [1] (10 μg/ml, read-out: Percentage Increase of Contractile Force), the activation at 10 µg/mL was determined as 5.7%. In addition, the “Diuretic Activity” value in the series with rats [2] (10.0 mg/kg) is 175%. Besides, the “Diuretic Activity” value in the series with rats [2] (20.0 mg/kg) turned out to be 206%. Also, in the series with rats [3] (10 mg/kg), the “Variation … Duration Period” value is 85 min and the “Variation … Percentage Increase” value was determined as 52%. For the same molecule, in the series “Solubility”, the Solubility in acetone result is reported as “readily soluble”, the Solubility in hexane result was “sparingly soluble”, the Solubility in methanol result is “readily soluble” and the Solubility in water result was “sparingly soluble”.

For the molecule `COc1ccc(Cl)cc1N=Nc1ncc[nH]1` [Compound A, 2-[(2-methoxy-5-chlorophenyl)azo]-1H-imidazole], in the series “Acute toxicity in mice” (ip), the LD50 at 168 h was 795 mg/kg. In the series “Acute toxicity in mice” (po, orally), the LD50 at 168 h amounted to 1280 mg/kg. For the same molecule, the “Average Erythema Score After Treatment” value with rabbit eye mucosa (0.05%) is 0.33. For the same molecule, the “Average Erythema Score Before Treatment” value in the series on rabbit eye mucosa turned out to be 1. Also, the inhibition at 1 µg/mL in series [1] (setting [4]) came out at 5.4%. For the same molecule, the activation at 1 µg/mL in series [1] (setting [5]) was found to be 15.4%. For the same molecule, in the series on rats [2] (0.5 mg/kg), the “Diuretic Activity” value is listed as 133%. Further, the “Diuretic Activity” value in the series with rats [2] (1.0 mg/kg) came out at 183%. Moreover, the “Diuretic Activity” value with rats [2] (2.0 mg/kg) turned out to be 329%. In the series on rats [3] (1 mg/kg), the “Variation … Duration Period” value came out at 55 min and the “Variation … Percentage Increase” value was 49%. Besides, in “Solubility”, the Solubility in acetone result was “readily soluble”, the Solubility in hexane result is given as “less soluble”, the Solubility in methanol entry was “readily soluble” and the Solubility in water entry is “less soluble”.
